Activity data for 2 compounds are collected here from ChEMBL document CHEMBL5113440, “Optimization of clofibrate with O-desmethyl anetholtrithione lead to a novel hypolipidemia compound with hepatoprotective effect” (Bioorg Med Chem Lett, 2022).

The nature of data set [1]: Hepatotoxicity in KM mouse assessed as infiltration of inflammatory cells at 1.65 mmol/Kg, IG administered via gavage by H and E staining based analysis. In kind it is toxicity. The note with it: in vivo, po.
A short description of data set [2]: Hepatotoxicity in KM mouse assessed as reduction in plasma ALT level at 1.65 mmol/Kg, IG administered via gavage measured for 1 month by automated biochemical analyzer. The note with it: in vivo, po, 730 h, time 1 months. In kind it is toxicity.
For data set [3], the system named is Mus musculus. The data set can be described thus: Upregulation of p-NF-kappaB p65 protein expression in liver of KM mouse at 1.65 mmol/Kg, IG administered via gavage measured after 1 month by Western blot analysis. The data set is classed as functional. The following applies: time 1.0 months.
Data set [4] relates to Mus musculus. The data set can be described thus: Induction of oxidative stress in KM mouse assessed as increase in MDA level in plasma at 1.65 mmol/Kg, IG administered via gavage measured for 1 month. The data set is classed as functional, organism-based. The following applies: time 1.0 months.
A short description of data set [5]: Hepatotoxicity in KM mouse assessed as reduction in plasma ALP level at 1.65 mmol/Kg, IG administered via gavage measured for 1 month by automated biochemical analyzer. The data set is classed as toxicity. The following applies: in vivo, po, 730 h, time 1 months.
Data set [6] concerns Mus musculus. The experiment in a line: Induction of inflammation in KM mouse assessed as upregulation of IL-6 expression in liver tissue at 1.65 mmol/Kg, IG administered via gavage measured for 1 month by Western blot analysis. The following applies: time 1.0 months. In kind it is functional. On the technique in general: In western blotting, separated proteins are transferred to a membrane and probed.

Data set [7] is described as follows: Hepatotoxicity in KM mouse assessed as effect on liver weight at 1.65 mmol/Kg, IG administered via gavage measured for 1 month. In kind it is toxicity, tissue-based. The following applies: in vivo, po, 730 h, time 1 months.
Data set [8] can be described thus: Hepatotoxicity in KM mouse assessed as reduction in total bilirubin level in plasma at 1.65 mmol/Kg, IG administered via gavage measured for 1 month by automated biochemical analyzer. The data set is classed as toxicity. The following applies: po, 730 h, time 1 months.
A short description of data set [9]: Hepatotoxicity in KM mouse assessed as blurred edge dissolution at 1.65 mmol/Kg, IG administered via gavage by H and E staining based analysis. The data set is classed as toxicity. The following applies: in vivo, po.
Data set [10] can be described thus: Hepatotoxicity in KM mouse assessed as large areas of hepatocytes swelling at 1.65 mmol/Kg, IG administered via gavage by H and E staining based analysis. In kind it is toxicity. The note with it: in vivo, po.
Data set [11] relates to Mus musculus. The experiment in a line: Induction of oxidative stress in KM mouse assessed as reduction in SOD level in plasma at 1.65 mmol/Kg, IG administered via gavage measured for 1 month. In kind it is functional, organism-based. The following applies: time 1.0 months.
The nature of data set [12]: Hepatotoxicity in KM mouse assessed as reduction in plasma AST level at 1.65 mmol/Kg, IG administered via gavage measured for 1 month by automated biochemical analyzer. The following applies: in vivo, po, 730 h, time 1 months. The data set is classed as toxicity.
For data set [13], the system named is Mus musculus. The experiment in a line: Induction of oxidative stress in KM mouse assessed as reduction in CAT level in plasma at 1.65 mmol/Kg, IG administered via gavage measured for 1 month. The data set is classed as functional, organism-based. The note with it: time 1.0 months.
Data set [14] deals with Mus musculus. The data set can be described thus: Induction of oxidative stress in KM mouse assessed as reduction in GSH level in plasma at 1.65 mmol/Kg, IG administered via gavage measured for 1 month. In kind it is functional, organism-based. The note with it: time 1.0 months.
Data set [15] in a line: Toxicity in KM mouse assessed as reduction in body weight at 1.65 mmol/Kg, IG administered via gavage measured for 1 month. The following applies: in vivo, po, 730 h, time 1 months.
Data set [16] in a line: Hepatotoxicity in KM mouse assessed as reduction in liver coefficient at 1.65 mmol/Kg, IG administered via gavage measured for 1 month. The note with it: in vivo, po, 730 h, time 1 months. In kind it is toxicity, tissue-based.
Data set [17] deals with Mus musculus. The data set can be described thus: Induction of inflammation in KM mouse assessed as upregulation of TNF-alpha expression in liver tissue at 1.65 mmol/Kg, IG administered via gavage measured for 1 month by Western blot analysis. In kind it is functional. The following applies: time 1.0 months.
The nature of data set [18]: Hepatotoxicity in KM mouse assessed as appearance of loose cytoplasm at 1.65 mmol/Kg, IG administered via gavage by H and E staining based analysis. The data set is classed as toxicity. The note with it: in vivo, po.
Data set [19] in a line: Hepatotoxicity in KM mouse assessed as nuclear degeneration at 1.65 mmol/Kg, IG administered via gavage by H and E staining based analysis. The data set is classed as toxicity. The following applies: in vivo, po.
The subject of data set [20] is Mus musculus. The experiment in a line: Antiinflammatory activity in KM mouse assessed as downregulation of IL-6 expression in liver tissue at 1.65 mmol/Kg, IG administered via gavage measured for 1 month by Western blot analysis. In kind it is functional, organism-based. The following applies: time 1.0 months.
The test system of data set [21] is Mus musculus. The data set can be described thus: Antioxidant activity in KM mouse assessed as increase in CAT level in plasma at 1.65 mmol/Kg, IG administered via gavage measured for 1 month. The following applies: time 1.0 months. In kind it is functional, organism-based.
In data set [22] the test system is Mus musculus. The experiment in a line: Antioxidant activity in KM mouse assessed as reduction in MDA level in plasma at 1.65 mmol/Kg, IG administered via gavage measured for 1 month. The note with it: time 1.0 months. The data set is classed as functional, organism-based.
The subject of data set [23] is Mus musculus. The experiment in a line: Upregulation of HO-1 protein expression in liver of KM mouse at 1.65 mmol/Kg, IG administered via gavage measured after 1 month by Western blot analysis. The following applies: time 1.0 months. The data set is classed as functional.
Data set [24] concerns Mus musculus. The data set can be described thus: Downregulation of p-NF-kappaB p65 protein expression in liver of KM mouse at 1.65 mmol/Kg, IG administered via gavage measured after 1 month by Western blot analysis. The data set is classed as functional. The note with it: time 1.0 months.
The test system of data set [25] is Mus musculus. The experiment in a line: Antioxidant activity in KM mouse assessed as increase in SOD level in plasma at 1.65 mmol/Kg, IG administered via gavage measured for 1 month. In kind it is functional, organism-based. The note with it: time 1.0 months.
The test system of data set [26] is Mus musculus. The experiment in a line: Hypolipidemic activity in Triton-WR-1339 induced hyperlipidemic KM mouse model assessed as reduction in plasma TG level administered intragastrically via gavage for 7 days. In kind it is functional, organism-based. The following applies: dose 0.029-0.267 mmol/Kg, route ig, time 7.0 day, DDE = dose-dependent effect.
Data set [27] concerns Mus musculus. The experiment in a line: Antiinflammatory activity in KM mouse assessed as downregulation of TNF-alpha expression in liver tissue at 1.65 mmol/Kg, IG administered via gavage measured for 1 month by Western blot analysis. In kind it is functional, organism-based. The note with it: time 1.0 months.
Data set [28] concerns Mus musculus. The experiment in a line: Hepatoprotective activity in KM mouse assessed as improvement in hepatocyte injury at 1.65 mmol/Kg, IG administered via gavage by H and E staining based analysis. The data set is classed as functional, organism-based.
Data set [29] has as its system Mus musculus. The data set can be described thus: Upregulation of Nrf2 protein expression in liver of KM mouse at 1.65 mmol/Kg, IG administered via gavage measured after 1 month by Western blot analysis. In kind it is functional. The following applies: time 1.0 months.
In data set [30] the test system is Mus musculus. The data set can be described thus: Antioxidant activity in KM mouse assessed as increase in GSH level in plasma at 1.65 mmol/Kg, IG administered via gavage measured for 1 month. The data set is classed as functional, organism-based. The following applies: time 1.0 months.
For data set [31], the system named is Mus musculus. The data set can be described thus: Hypolipidemic activity in Triton-WR-1339 induced hyperlipidemic KM mouse model assessed as reduction in plasma TC level administered intragastrically via gavage for 7 days. In kind it is functional, organism-based. The note with it: dose 0.029-0.267 mmol/Kg, route ig, time 7.0 day, DDE = dose-dependent effect.

Calls of active or inactive are those of the source. The rule behind the calls is not given here.

With `CCOC(=O)C(C)(C)Oc1ccc(Cl)cc1` [CLOFIBRATE], the Activity result in [1], in data set [2], in [5], in [7], in [8] and in [9] was “Toxic” throughout. In addition, the Activity entry in [10] is reported as “Toxic”; in [12], “Toxic”; in data set [15] it was “Non-Toxic”; in data set [16], “Toxic”; in data set [18], “Toxic”; in [19], “Toxic”. Also, the outcome in the data set with Mus musculus [3], in the data set on Mus musculus [4], in the data set on Mus musculus [6], with Mus musculus [11], with Mus musculus [13] and in the data set with Mus musculus [14] was Active. Besides, the result with Mus musculus [17] was Active.
As for `CC(C)(Oc1ccc(Cl)cc1)C(=O)Oc1ccc(-c2cc(=S)ss2)cc1`, the outcome with Mus musculus [20], with Mus musculus [21], in the data set on Mus musculus [22], in the data set with Mus musculus [23], in the data set with Mus musculus [24] and with Mus musculus [25] was Active. Moreover, the outcome in the data set on Mus musculus [27], with Mus musculus [28], in the data set on Mus musculus [29] and in the data set with Mus musculus [30] was Active. Further, the Activity entry in data set [1] is “Non-Toxic”; in [2], “Non-Toxic”; in [5], “Non-Toxic”; in [7], “Non-Toxic”; with Mus musculus [26], “Dde”; in data set [8] it was “Non-Toxic”. The Activity result was “Non-Toxic” in [12]; “Non-Toxic” in [15]; “Non-Toxic” in data set [16]; “Non-Toxic” in [18]; “Non-Toxic” in data set [19]; “Dde” with Mus musculus [31].
